Reference: ChEMBL document CHEMBL3232814, “Synthesis and anticancer structure activity relationship investigation of cationic anthraquinone analogs” (2014)

Assays:
Format in all cases: functional
[1] = Growth inhibition of human SF295 cells; details: SF-295
[2] = Growth inhibition of human HOP92 cells; details: for GI50: HOP-92; for CC50: HOP-92, read-out: LC50 (the source's name)
NCI-H226 = assay: Growth inhibition of human NCI-H226 cells; details: for CC50: read-out: LC50 (the source's name)
NCI-H460 = assay: Growth inhibition of human NCI-H460 cells; details: for CC50: read-out: LC50 (the source's name)
A549 = assay: Growth inhibition of human A549 cells; details: for CC50: read-out: LC50 (the source's name)
SK-MEL-5 = assay: Growth inhibition of human SK-MEL-5 cells
SK-MEL-2 = assay: Growth inhibition of human SK-MEL-2 cells; details: for CC50: read-out: LC50 (the source's name)
SK-MEL-28 = assay: Growth inhibition of human SK-MEL-28 cells; details: for CC50: read-out: LC50 (the source's name)
HOP-62 = assay: Growth inhibition of human HOP62 cells; details: for CC50: read-out: LC50 (the source's name)
[3] = Growth inhibition of human EKVX cells
SF-268 = assay: Growth inhibition of human SF268 cells; details: for CC50: read-out: LC50 (the source's name)
NCI-H522 = assay: Growth inhibition of human NCI-H522 cells; details: for CC50: read-out: LC50 (the source's name)
NCI-H322M = assay: Growth inhibition of human NCI-H322M cells; details: for CC50: read-out: LC50 (the source's name)
KM12 = assay: Growth inhibition of human KM12 cells; details: for CC50: read-out: LC50 (the source's name)
SNB-75 = assay: Growth inhibition of human SNB75 cells; details: for CC50: read-out: LC50 (the source's name)
MDA-MB-435 = assay: Growth inhibition of human MDA-MB-435 cells
[4] = Growth inhibition of human HCC2998 cells; details: for GI50: HCC 2998; for CC50: HCC 2998, read-out: LC50 (the source's name)
Malme-3M = assay: Growth inhibition of human MALME-3M cells; details: for CC50: read-out: LC50 (the source's name)
[5] = Growth inhibition of human UACC62 cells; details: for GI50: UACC-62; for CC50: UACC-62, read-out: LC50 (the source's name)
M14 = assay: Growth inhibition of human M14 cells; details: for CC50: read-out: LC50 (the source's name)
SW-620 = assay: Growth inhibition of human SW620 cells; details: for CC50: read-out: LC50 (the source's name)
SNB-19 = assay: Growth inhibition of human SNB19 cells
[6] = Growth inhibition of human UACC257 cells; details: for GI50: UACC-257; for CC50: UACC-257, read-out: LC50 (the source's name)
NCI-H23 = assay: Growth inhibition of human NCI-H23 cells; details: for CC50: read-out: LC50 (the source's name)
HT-29 = assay: Growth inhibition of human HT-29 cells
U-251 = assay: Growth inhibition of human U251 cells
[7] = Growth inhibition of human SF539 cells; details: for GI50: SF-539; for CC50: SF-539, read-out: LC50 (the source's name)
[8] = Growth inhibition of human HCT15 cells; details: for GI50: HCT-15
HCT-116 = assay: Growth inhibition of human HCT116 cells; details: for CC50: read-out: LC50 (the source's name)
COLO 205 = assay: Growth inhibition of human COLO205 cells; details: for CC50: read-out: LC50 (the source's name)
[9] = Growth inhibition of human LOXIMVI cells; details: LOX IMVI; for CC50: read-out: LC50 (the source's name)
[10] = Growth inhibition of human NCI60 cells assessed as cell growth; design: concentration or dose not given beside the values
Staphylococcus aureus = assay: Antimicrobial activity against Staphylococcus aureus ATCC 25923 after 12 to 18 hrs by 2-fold serial dilution method
[11] = read-out: LC50 (the source's name)

C[n+]1nn(-c2ccc(C(F)(F)F)cc2)c2c1C(=O)c1ccccc1C2=O.O=S(=O)([O-])C(F)(F)F
GI50 [1]: 0.54 µM
LC50 (concentration killing 50% of cells) [1]: 6.74 µM
GI50 [2]: > 100 µM
CC50 [2]: > 100 µM
GI50 (NCI-H226): 10.1 µM
CC50 (NCI-H226): 89.4 µM
GI50 (NCI-H460): 1.4 µM
CC50 (NCI-H460): 7.77 µM
GI50 (A549): 0.86 µM
CC50 (A549): > 100 µM
GI50 (SK-MEL-5): 0.16 µM
LC50 (lethal concentration 50) (SK-MEL-5): 0.57 µM
GI50 (SK-MEL-2): 12.5 µM
CC50 (SK-MEL-2): > 100 µM
GI50 (SK-MEL-28): 12.8 µM
CC50 (SK-MEL-28): 56.5 µM
GI50 (HOP-62): 2.12 µM
CC50 (HOP-62): 26 µM
GI50 [3]: 23.4 µM
CC50 [3, 11]: > 100 µM
GI50 (SF-268): 18.7 µM
CC50 (SF-268): > 100 µM
GI50 (NCI-H522): 14.3 µM
CC50 (NCI-H522): 68.2 µM
GI50 (NCI-H322M): 0.83 µM
CC50 (NCI-H322M): 4.86 µM
GI50 (KM12): 8.17 µM
CC50 (KM12): 55.9 µM
GI50 (SNB-75): 1.07 µM
CC50 (SNB-75): 11.2 µM
GI50 (MDA-MB-435): 1.09 µM
CC50 (MDA-MB-435; [11]): 7.28 µM
GI50 [4]: 1.52 µM
CC50 [4]: 12.9 µM
GI50 (Malme-3M): 1.84 µM
CC50 (Malme-3M): 9.35 µM
GI50 [5]: 1.67 µM
CC50 [5]: 30.6 µM
GI50 (M14): 0.54 µM
CC50 (M14): 4.38 µM
GI50 (SW-620): 14 µM
CC50 (SW-620): 64.3 µM
GI50 (SNB-19): 1.45 µM
LC50 (SNB-19): 6.54 µM
GI50 [6]: 3.24 µM
CC50 [6]: 43.1 µM
GI50 (NCI-H23): 0.36 µM
CC50 (NCI-H23): 5.33 µM
GI50 (HT-29): 4.1 µM
LC50 (HT-29): > 100 µM
GI50 (U-251): 14 µM
LC50 (U-251): 56.8 µM
GI50 [7]: 4.68 µM
CC50 [7]: 46.7 µM
GI50 [8]: 3.48 µM
CC50 ([8]; HCT-15, read-out: LC50 (the source's name)): 84 µM
GI50 (HCT-116): 3.42 µM
CC50 (HCT-116): 41.9 µM
GI50 (COLO 205): 1.32 µM
CC50 (COLO 205): 5.73 µM
GI50 [9]: 2.68 µM
CC50 [9]: 36.8 µM
Activity [10]: 58.69%

COc1cc(OC)cc(-n2n[n+](C)c3c2C(=O)c2ccccc2C3=O)c1.O=S(=O)([O-])C(F)(F)F
GI50 [1]: 0.18 µM
LC50 (concentration killing 50% of cells) [1]: 0.61 µM
GI50 [2]: 7.07 µM
CC50 [2]: > 100 µM
GI50 (NCI-H226): 1.74 µM
CC50 (NCI-H226): 7.76 µM
GI50 (NCI-H460): 0.56 µM
CC50 (NCI-H460): 8.01 µM
GI50 (A549): 0.78 µM
CC50 (A549): 8.81 µM
GI50 (SK-MEL-5): 0.18 µM
LC50 (lethal concentration 50) (SK-MEL-5): 0.66 µM
GI50 (SK-MEL-2): 2.08 µM
CC50 (SK-MEL-2): 12.4 µM
GI50 (SK-MEL-28): 3.2 µM
CC50 (SK-MEL-28): 43.3 µM
GI50 (HOP-62): 1.51 µM
CC50 (HOP-62): 6.08 µM
GI50 (SF-268): 3.68 µM
CC50 (SF-268): > 100 µM
MIC (Staphylococcus aureus): 16 µg/mL
GI50 (NCI-H522): 2.54 µM
CC50 (NCI-H522): 29.2 µM
GI50 (NCI-H322M): 0.36 µM
CC50 (NCI-H322M): 3.68 µM
GI50 (KM12): 3.11 µM
CC50 (KM12): 42.9 µM
GI50 (SNB-75): 1.63 µM
CC50 (SNB-75): 5.47 µM
GI50 (MDA-MB-435): 0.31 µM
GI50 [4]: 1.5 µM
CC50 [4]: 8.99 µM
GI50 (Malme-3M): 0.41 µM
CC50 (Malme-3M): 3.72 µM
GI50 [5]: 1.41 µM
CC50 [5]: 5.89 µM
GI50 (M14): 0.5 µM
CC50 (M14): 4.37 µM
GI50 (SW-620): 3 µM
CC50 (SW-620): > 100 µM
GI50 (SNB-19): 1.25 µM
LC50 (SNB-19): 5.1 µM
GI50 [6]: 1.2 µM
CC50 [6]: 5.3 µM
GI50 (NCI-H23): 1.26 µM
CC50 (NCI-H23): > 100 µM
GI50 (HT-29): 1.1 µM
LC50 (HT-29): > 100 µM
GI50 (U-251): 1.53 µM
LC50 (U-251): 5.54 µM
GI50 [7]: 1.64 µM
CC50 [7]: 5.6 µM
GI50 [8]: 1.61 µM
GI50 (HCT-116): 2.66 µM
CC50 (HCT-116): 48.6 µM
GI50 (COLO 205): 0.4 µM
CC50 (COLO 205): 5.35 µM
GI50 [9]: 1.71 µM
CC50 [9]: 7.09 µM
Activity [10]: 23.23%
